Assay results taken from US20220000117A1, “METHOD FOR CONTROLLING DISEASES IN SMALL GRAIN CEREALS, SEED OF SMALL GRAIN CEREALS, AND METHOD FOR SUPPRESSING LODGING DAMAGE IN SMALL GRAIN CEREALS” (KUMIAI CHEMICAL INDUSTRY CO., LTD., priority 2019, published 2022).

How the values were obtained:
[1] = tested on: wheat (variety: Norin No. 61); test: Test Example 2: emergence rate of treated wheat seed; type: in vivo; conditions: 10 days after seeding
Experimental: Seed having a mass of 1 kg of wheat (variety: Norin No. 61) was mixed into 100 ml of suspension water containing 5 g or 0.5 g of dichlobentiazox or isotianil (commercial Routine flowable was used, “Routine” is a registered trademark) and air-dried, and then, 15 seeds were sown in a plastic pot of 9 cm×9 cm containing horticultural soil and managed in a greenhouse. The number of emerged seeds was investigated 10 days after seeding, and an emergence rate was calculated (Examples 2 to 5). On day 49 after seeding, conidiospores of powdery mildew were sifted over leaves of wheat seedlings and inoculated onto the leaves, a lesion area ratio of powdery mildew in a first leaf was investigated 59 days after seeding according to the criteria in Table 1, and the degree of disease occurrence was calculated by the above calculation formula (1).

[2] = tested on: powdery mildew; test: Test Example 3: control test of wheat powdery mildew, cup in greenhouse, inoculated; type: in vivo, Blumeria graminis; design: key to Degree of Disease Occurrence: Σ(index×no. leaves of index)/(4×no. investigated leaves)×100; conditions: for Degree of Disease Occurrence: 19 days after seeding
Experimental: (§1) Degree of Disease Occurrence=Σ(Index×Number of Leaves of Index)/(4×Number of Investigated Leaves)×100 (1)
(§2) Seed having a mass of 1 kg of wheat (variety: Norin No. 61) was mixed into 100 ml of suspension water containing 5 g or 0.5 g of dichlobentiazox or isotianil and air-dried, and then, 12 seeds were sown in a plastic cup having a diameter of 6 cm containing river sand and managed in a greenhouse. The number of emerged seeds was investigated nine days after seeding, and an emergence rate was calculated (Examples 6 to 9). In Comparative Examples 6 to 9, 20 ml of suspension water of an active ingredient, which had been adjusted to have a concentration shown in Table 4, was sprayed in a frame of 45 cm×45 cm in which a pot of wheat seedlings was placed (corresponding to 1000 L/ha) 14 days after seeding. On day 14 after seeding, conidiospores of powdery mildew were sifted over leaves of wheat seedlings and inoculated onto the leaves (after the sprayed liquid was dried in the case of Comparative Examples), a lesion area ratio of powdery mildew in a first leaf was investigated 19 days after seeding according to the criteria in Table 1, and the degree of disease occurrence was calculated by the above calculation formula (1).

[3] = tested on: wheat (variety: Norin No. 61); test: Test Example 3: emergence rate of wheat seed; type: in vivo
Experimental: as §2

[4] = tested on: powdery mildew; test: Test Example 5: control test of wheat powdery mildew, field, wheat variety Haruyutaka; type: in vivo, Blumeria graminis; conditions: for Degree of Disease Occurrence / Disease Leaf Rate (%): leaves just below flag leaves, 85 days after seeding
Experimental: as §1
Seed of wheat (variety: Haruyutaka) sterilized in advance with commercial Benlate T wettable powder 20 (“Benlate” is a registered trademark) was used. In Examples 12, 13, and 14, seed having a mass of 1 kg was mixed into 50 ml of suspension water containing 2.5 g or 1.25 g of dichlobentiazox or 50 ml of suspension water containing 2.5 g of isotianil, air-dried, and then, stripe-sown in a field with a furrow width of 30 cm and a ratio of 100 kg/ha (300 seeds/m^2). Moreover, in Comparative Example 14, seed having a mass of 1 kg was mixed into 50 ml of suspension water containing 2.5 g of tiadinil (commercial V-GET flowable was used, “V-GET” is a registered trademark), air-dried, and then, stripe-sown in a field with a furrow width of 30 cm and a ratio of 100 kg/ha (300 seeds/m^2). The presence or absence of disease occurrence and a lesion area ratio of powdery mildew in leaves just below hag leaves (next leaves) of 30 stems were investigated 85 days after seeding by according to the criteria in Table 1, and a disease leaf rate and the degree of disease occurrence were calculated by the above calculation formula(1).

[5] = Seed Treatment 1.25 g/Seed 1 kg (printed: 250 g/ha)
[6] = Seed Treatment 2.5 g/Seed 1 kg (250 g/ha)

SMILES: O=S1(=O)N=C(OCc2snc(Cl)c2Cl)c2ccccc21 [Compound (1), Dichlobentiazox]
- Emergence Rate (%) ([1]; Seed Treatment 0.5 g/Seed 1 kg (50 g/ha)): 100%
- Emergence Rate (%) ([1]; Seed Treatment 5 g/Seed 1 kg (500 g/ha)): 96%
- Degree of Disease Occurrence ([2]; Foliage Treatment, spray 50 ppm suspension water (50 g/ha) day 14, first leaf): 52.8
- Degree of Disease Occurrence ([2]; Foliage Treatment, spray 500 ppm suspension water (500 g/ha) day 14, first leaf): 44.4
- Degree of Disease Occurrence ([2]; Seed Treatment 0.5 g/Seed 1 kg (50 g/ha), inoculated day 14, first leaf): 10.1
- Degree of Disease Occurrence ([2]; Seed Treatment 5 g/Seed 1 kg (500 g/ha), inoculated day 14, first leaf): 9.0
- disease occurrence of powdery mildew, seed treatment compared with spraying on foliage during a growing period ([2]; seed treatment): suppressed lower
- Emergence Rate (%) ([3]; Foliage Treatment group, spray 50 ppm (50 g/ha) 14 days after seeding, emergence counted nine days after seeding): 100%
- Emergence Rate (%) ([3]; Foliage Treatment group, spray 500 ppm (500 g/ha) 14 days after seeding, emergence counted nine days after seeding): 97%
- Emergence Rate (%) ([3]; Seed Treatment 0.5 g/Seed 1 kg (50 g/ha), nine days after seeding): 97%
- Emergence Rate (%) ([3]; Seed Treatment 5 g/Seed 1 kg (500 g/ha), nine days after seeding): 100%
- Degree of Disease Occurrence [4, 5]: 0.8
- Disease Leaf Rate (%) [4, 5]: 4.4%
- Degree of Disease Occurrence [4, 6]: 0.4
- Disease Leaf Rate (%) [4, 6]: 2.2%
- disease occurrence of powdery mildew, seed treatment compared with seed treatment with tiadinil ([4]; seed treatment): suppresses the disease occurrence of powdery mildew lower
